According to article PMC12587545, “Noncytotoxic polymyxin derivatives enhance antibiotic action against multidrug-resistant Gram-negative bacteria” (Antimicrobial Agents and Chemotherapy, 2025):
Where “and” joins values, the source holds several entries; their conditions need not be identical. Equal entries are not always repeated.

Assays:
[1] = system: P. aeruginosa; test: Checkerboard assay (antibiotic potentiation); format: cell-based, Pseudomonas aeruginosa; conditions: for MICantibiotic: antibiotic alone
[2] = system: A. baumannii; test: Checkerboard assay (antibiotic potentiation); format: cell-based, Acinetobacter baumannii; design: key to FIC index: sum of FICs; ≤0.5 synergistic, 0.5–4 additive, >4 antagonistic; conditions: for MICantibiotic: antibiotic alone
[3] = system: E. coli; test: Checkerboard assay (antibiotic potentiation); format: cell-based, Escherichia coli; conditions: for MICantibiotic + compound: antibiotic MIC with 8 µg/mL (5 µM) compound 1; for MICantibiotic: antibiotic alone; for Potentiation: of antibiotic by 8 µg/mL (5 µM) compound 1
Method: (§1) The interaction between the compounds and the antibiotics was evaluated using the fractional inhibitory concentration (FIC) index. FIC indices of ≤0.5 is synergistic, 0.5 < × ≤ 4 is additive, whereas >4 is antagonistic ([34]).
(§2) Synergy was measured by the FIC index, which is the summation of the individual FICs of the antibiotic and the compound. The FIC is calculated by dividing the MIC of one agent in the presence of another by the MIC of the agent alone. […] The FBS studies were conducted by following a previously published protocol ([29], [50]). The FBS was inactivated by heating at 56°C for 30 min with constant swirling.

[4] = system: K. pneumoniae; test: Checkerboard assay (antibiotic potentiation); format: cell-based, Klebsiella pneumoniae; conditions: for Interpretation: antibiotic + compound 1; for MICantibiotic + compound: antibiotic MIC with 8 µg/mL (5 µM) compound 1; for MICantibiotic: antibiotic alone; for Potentiation: of antibiotic by 8 µg/mL (5 µM) compound 1
Method: as §1, §2

[5] = system: E. cloacae; test: Checkerboard assay (antibiotic potentiation); format: cell-based, Enterobacter cloacae; conditions: E. cloacae 121887 (colistin-resistant)
Method: The interaction between the compounds and the antibiotics was evaluated using the fractional inhibitory concentration (FIC) index. FIC indices of ≤0.5 is synergistic, 0.5 < × ≤ 4 is additive, whereas >4 is antagonistic ([34]). […] .
The bacterial isolates were acquired from ATCC or the Canadian Ward Surveillance (CANWARD) study ([56]). CANWARD isolates were collected from infected patients admitted to participating medical centers across Canada.
(§3) The antibiotic and compounds were serially diluted 2-fold in CAMHB along the x- and y-axis, respectively, on a 96-well plate that was subsequently incubated with equal volumes of bacterial inoculum overnight at 37°C. Wells containing only media were used as negative controls, and wells containing only bacteria were used as positive controls. Synergy was measured by the FIC index, which is the summation of the individual FICs of the antibiotic and the compound. The FIC is calculated by dividing the MIC of one agent in the presence of another by the MIC of the agent alone. Turbidity was confirmed with a Molecular Devices (United States) EMax Plus microplate reader at a wavelength of 590 nm. The FBS studies were conducted by following a previously published protocol ([29], [50]). The FBS was inactivated by heating at 56°C for 30 min with constant swirling.

[6] = system: MDR Gram-negative bacteria clinical isolates; test: Checkerboard assay, summary over strains; format: cell-based; conditions: of all 14 clinical isolates; number (%)
Method: as §1, §3

[7] = P. aeruginosa 262-101856, antibiotic + compound 1
[8] = A. baumannii 110193, antibiotic + compound 1
[9] = A. baumannii ATCC 17978, antibiotic + compound 1
[10] = E. coli 94393 (colistin-resistant)
[11] = E. coli 94474 (colistin-resistant)
[12] = K. pneumoniae 113250 (colistin-resistant)

## C[C@H]1COc2c(N3CCN(C)CC3)c(F)cc3c(=O)c(C(=O)O)cn1c23 [Levofloxacin]
[1]; P. aeruginosa 259-96916, antibiotic + compound 1
  Interpretation: Synergy (FIC indices of ≤0.5 is synergistic)
[1]; P. aeruginosa 259-96916, antibiotic MIC with 8 µg/mL (5 µM) compound 1
  MICantibiotic + compound: 16 µg/mL
[1]; P. aeruginosa 259-96916
  MICantibiotic: 512 µg/mL
[1]; P. aeruginosa 259-96916, of antibiotic by 8 µg/mL (5 µM) compound 1
  Potentiation: 32 fold
[1]; [7]
  FIC index: x < 0.125
  Interpretation: Synergy (FIC indices of ≤0.5 is synergistic)
[1]; P. aeruginosa 262-101856, antibiotic MIC with 8 µg/mL (5 µM) compound 1
  MICantibiotic + compound: 4 µg/mL
[1]; P. aeruginosa 262-101856
  MICantibiotic: >64 µg/mL
[1]; P. aeruginosa 262-101856, of antibiotic by 8 µg/mL (5 µM) compound 1
  Potentiation: ≥32-fold
[1]; P. aeruginosa 264-105354, antibiotic + compound 1
  Interpretation: Synergy (FIC indices of ≤0.5 is synergistic)
[1]; P. aeruginosa 264-105354, antibiotic MIC with 8 µg/mL (5 µM) compound 1
  MICantibiotic + compound: 4 µg/mL
[1]; P. aeruginosa 264-105354
  MICantibiotic: 64 µg/mL
[1]; P. aeruginosa 264-105354, of antibiotic by 8 µg/mL (5 µM) compound 1
  Potentiation: 16 fold
[1]; P. aeruginosa 101243 (colistin-resistant), antibiotic + compound 1
  Interpretation: Synergy (FIC indices of ≤0.5 is synergistic)
[1]; P. aeruginosa 101243 (colistin-resistant), antibiotic MIC with 8 µg/mL (5 µM) compound 1
  MICantibiotic + compound: 16 µg/mL
[1]; P. aeruginosa 101243 (colistin-resistant)
  MICantibiotic: 128 µg/mL
[1]; P. aeruginosa 101243 (colistin-resistant), of antibiotic by 8 µg/mL (5 µM) compound 1
  Potentiation: 8 fold
[1]; P. aeruginosa 114228 (colistin-resistant), antibiotic + compound 1
  Interpretation: Additive (0.5 < × ≤ 4 is additive)
[1]; P. aeruginosa 114228 (colistin-resistant), antibiotic MIC with 8 µg/mL (5 µM) compound 1
  MICantibiotic + compound: 2 µg/mL
[1]; P. aeruginosa 114228 (colistin-resistant)
  MICantibiotic: 2 µg/mL
[1]; P. aeruginosa 114228 (colistin-resistant), of antibiotic by 8 µg/mL (5 µM) compound 1
  Potentiation: 1 fold
[1]; P. aeruginosa PAO1, antibiotic + compound 1
  Interpretation: Synergy (FIC indices of ≤0.5 is synergistic)
[1]; P. aeruginosa PAO1, antibiotic + compound 3
  Interpretation: Additive (0.5 < × ≤ 4 is additive)
[1]; P. aeruginosa PAO1, antibiotic MIC with 8 µg/mL (5 µM) compound 1
  MICantibiotic + compound: 0.125 µg/mL
[1]; P. aeruginosa PAO1, antibiotic MIC with 8 µg/mL (5 µM) compound 3
  MICantibiotic + compound: 1 µg/mL
[1]; P. aeruginosa PAO1
  MICantibiotic: 1 µg/mL and 0.5 µg/mL
[1]; P. aeruginosa PAO1, of antibiotic by 8 µg/mL (5 µM) compound 1
  Potentiation: 4 fold
[1]; P. aeruginosa PAO1, of antibiotic by 8 µg/mL (5 µM) compound 3
  Potentiation: 1 fold
[2]; A. baumannii 92247 (colistin-resistant), antibiotic + compound 1
  Interpretation: Additive (0.5 < × ≤ 4 is additive)
[2]; A. baumannii 92247 (colistin-resistant), antibiotic MIC with 4 µg/mL (2 µM) compound 1
  MICantibiotic + compound: 0.063 µg/mL
[2]; A. baumannii 92247 (colistin-resistant)
  MICantibiotic: 0.063 µg/mL
[2]; A. baumannii 92247 (colistin-resistant), of antibiotic by 4 µg/mL (2 µM) compound 1
  Potentiation: 1 fold
[2]; [8]
  FIC index: 1.125
  Interpretation: Additive (0.5 < × ≤ 4 is additive)
[2]; A. baumannii 110193, antibiotic MIC with 4 µg/mL (2 µM) compound 1
  MICantibiotic + compound: 0.25 µg/mL
[2]; A. baumannii 110193
  MICantibiotic: 0.25 µg/mL
[2]; A. baumannii 110193, of antibiotic by 4 µg/mL (2 µM) compound 1
  Potentiation: 1 fold
[2]; A. baumannii AB027, antibiotic + compound 1
  Interpretation: Additive (0.5 < × ≤ 4 is additive)
[2]; A. baumannii AB027, antibiotic MIC with 4 µg/mL (2 µM) compound 1
  MICantibiotic + compound: 4 µg/mL
[2]; A. baumannii AB027
  MICantibiotic: 8 µg/mL
[2]; A. baumannii AB027, of antibiotic by 4 µg/mL (2 µM) compound 1
  Potentiation: 2 fold
[2]; A. baumannii AB031, antibiotic + compound 1
  Interpretation: Additive (0.5 < × ≤ 4 is additive)
[2]; A. baumannii AB031, antibiotic MIC with 4 µg/mL (2 µM) compound 1
  MICantibiotic + compound: 0.125 µg/mL
[2]; A. baumannii AB031
  MICantibiotic: 0.25 µg/mL
[2]; A. baumannii AB031, of antibiotic by 4 µg/mL (2 µM) compound 1
  Potentiation: 2 fold
[2]; [9]
  FIC index: 0.650
  Interpretation: Additive (0.5 < × ≤ 4 is additive)
[2]; A. baumannii ATCC 17978, antibiotic + compound 3
  Interpretation: Additive (0.5 < × ≤ 4 is additive)
[2]; A. baumannii ATCC 17978, antibiotic MIC with 8 µg/mL (5 µM) compound 3
  MICantibiotic + compound: 0.125 µg/mL
[2]; A. baumannii ATCC 17978, antibiotic MIC with ¼ MIC (≤5 µM) of compound 1
  MICantibiotic + compound: 0.063 µg/mL
[2]; A. baumannii ATCC 17978
  MICantibiotic: 0.125 µg/mL
[2]; A. baumannii ATCC 17978, of antibiotic by 8 µg/mL (5 µM) compound 3
  Potentiation: 1 fold
[2]; A. baumannii ATCC 17978, of antibiotic by ¼ MIC (≤5 µM) of compound 1
  Potentiation: 2 fold
[3]; E. coli 94393 (colistin-resistant), antibiotic + compound 1
  FIC index: x < 0.563
[3]; [10]
  MICantibiotic + compound: 1 µg/mL
  MICantibiotic: >2 µg/mL
  Potentiation: ≥4-fold
[3]; E. coli 94474 (colistin-resistant), antibiotic + compound 1
  Interpretation: Additive (0.5 < × ≤ 4 is additive)
[3]; [11]
  MICantibiotic + compound: 8 µg/mL
  MICantibiotic: 16 µg/mL
  Potentiation: 2 fold
[4]; [12]
  Interpretation: Additive (0.5 < × ≤ 4 is additive)
  MICantibiotic + compound: 0.063 µg/mL
  MICantibiotic: 0.063 µg/mL
  Potentiation: 1 fold
[4]; K. pneumoniae 116381
  Interpretation: Synergy (FIC indices of ≤0.5 is synergistic)
  MICantibiotic + compound: 4 µg/mL
  MICantibiotic: 256 µg/mL
  Potentiation: 64 fold
[5]; antibiotic + compound 1
  Interpretation: Additive (0.5 < × ≤ 4 is additive)
[5]; antibiotic MIC with 8 µg/mL (5 µM) compound 1
  MICantibiotic + compound: 16 µg/mL
[5]; antibiotic alone
  MICantibiotic: 16 µg/mL
[5]; of antibiotic by 8 µg/mL (5 µM) compound 1
  Potentiation: 1 fold
[6]
  clinical isolates in which the antibiotic was synergized by compound 1: 5 (36%) strains
